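Where inhibition never reached the appropriate level, the endpoint shown equals the highest concentration tested. Otherwise, values were interpolated linearly from a five-concentration, 48-hour dose response in 96-well plates. TGI is the concentration that stops growth completely.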
Tests used:
Assay in all cases: DTP human tumour cell line panel, 48 h
[1] = test system: MOLT-4 leukemia
[2] = test system: 786-0 renal
[3] = test system: T-47D breast
[4] = test system: A498 renal
[5] = test system: EKVX NSCLC
[6] = test system: NCI-H460 lung
[7] = test system: ACHN renal
[8] = test system: OVCAR-3 ovarian
[9] = test system: SK-OV-3 ovarian
[10] = test system: IGROV1 ovarian
[11] = test system: PC-3 prostate
[12] = test system: OVCAR-4 ovarian
[13] = test system: SF-295 CNS
[14] = test system: SW-620 colon
[15] = test system: U251 CNS
[16] = test system: M14 melanoma
[17] = test system: UO-31 renal
[18] = test system: NCI-H23 lung
[19] = test system: OVCAR-5 ovarian
[20] = test system: SK-MEL-28 melanoma
[21] = test system: SN12C renal
[22] = test system: NCI-H226 lung
[23] = test system: MDA-N
[24] = test system: RXF 393 renal
[25] = test system: HCT-15 colon
[26] = test system: A549 NSCLC
[27] = test system: RPMI-8226 leukemia
[28] = test system: SK-MEL-5 melanoma
[29] = test system: DU-145 prostate
[30] = test system: MDA-MB-231 breast
[31] = test system: SNB-19 CNS
[32] = test system: OVCAR-8 ovarian
[33] = test system: K-562 leukemia
[34] = test system: KM12 colon
[35] = test system: MDA-MB-435
[36] = test system: UACC-257 melanoma
[37] = test system: COLO 205 colon
[38] = test system: HCC-2998 colon
[39] = test system: NCI-H522 lung
[40] = test system: HOP-92 NSCLC
[41] = test system: HS 578T breast
[42] = test system: UACC-62 melanoma
[43] = test system: HCT-116 colon
[44] = test system: HT29 colon
[45] = test system: NCI/ADR-RES ovarian
[46] = test system: SK-MEL-2 melanoma
[47] = test system: MCF7 breast
[48] = test system: SF-268 CNS
[49] = test system: TK-10 renal
[50] = test system: HL-60(TB) leukemia
[51] = test system: SF-539 CNS
[52] = test system: HOP-62 NSCLC
[53] = test system: LOX IMVI melanoma
[54] = test system: CCRF-CEM leukemia
[55] = test system: SR leukemia
[56] = test system: MALME-3M melanoma
[57] = test system: BT-549 breast
[58] = test system: SNB-75 CNS
[59] = test system: CAKI-1 renal

CC(C)(C)c1cc2c(c(C(C)(C)C)c1O)CC(=O)O2
TGI [1]: > 100 µM
TGI [2]: 94.1 µM
TGI [3]: 64.7 µM
TGI [4]: 94.7 µM
TGI [5]: > 100 µM
TGI [6]: > 100 µM
TGI [7]: 55.5 µM
TGI [8]: 50.7 µM
TGI [9]: > 100 µM
TGI [10]: 89.3 µM
TGI [11]: 76.1 µM
TGI [12]: > 100 µM
TGI [13]: 85.7 µM
TGI [14]: > 100 µM
TGI [15]: > 100 µM
TGI [16]: 62.5 µM
TGI [17]: 66.6 µM
TGI [18]: 59.3 µM
TGI [19]: > 100 µM
TGI [20]: > 100 µM
TGI [21]: > 100 µM
TGI [22]: 74.7 µM
TGI [23]: > 100 µM
TGI [24]: 54.5 µM
TGI [25]: > 100 µM
TGI [26]: > 100 µM
TGI [27]: 65 µM
TGI [28]: 32.2 µM
TGI [29]: > 100 µM
TGI [30]: 75.4 µM
TGI [31]: > 100 µM
TGI [32]: > 100 µM
TGI [33]: > 100 µM
TGI [34]: 64.6 µM
TGI [35]: 66 µM
TGI [36]: 75.7 µM
TGI [37]: 37.6 µM
TGI [38]: 96.7 µM
TGI [39]: > 100 µM
TGI [40]: 17.9 µM
TGI [41]: 97.3 µM
TGI [42]: 77.5 µM
TGI [43]: > 100 µM
TGI [44]: > 100 µM
TGI [45]: 54.7 µM
TGI [46]: 47.7 µM
TGI [47]: > 100 µM
TGI [48]: > 100 µM
TGI [49]: > 100 µM
TGI [50]: 86.8 µM
TGI [51]: 62.5 µM
TGI [52]: 92.8 µM
TGI [53]: > 100 µM
TGI [54]: 73.5 µM

C=C(Cl)/C(=C\Cl)CCC(Cl)C(C)C (stereo not given)
TGI [1]: > 100 µM
TGI [2]: > 100 µM
TGI [4]: > 100 µM
TGI [5]: > 100 µM
TGI [6]: > 100 µM
TGI [7]: > 100 µM
TGI [8]: > 100 µM
TGI [55]: > 100 µM
TGI [9]: > 100 µM
TGI [10]: > 100 µM
TGI [11]: > 100 µM
TGI [12]: > 100 µM
TGI [13]: > 100 µM
TGI [14]: > 100 µM
TGI [15]: > 100 µM
TGI [16]: > 100 µM
TGI [17]: > 100 µM
TGI [18]: > 100 µM
TGI [19]: > 100 µM
TGI [20]: > 100 µM
TGI [21]: > 100 µM
TGI [22]: > 100 µM
TGI [56]: > 100 µM
TGI [23]: > 100 µM
TGI [24]: > 100 µM
TGI [26]: > 100 µM
TGI [27]: > 100 µM
TGI [28]: > 100 µM
TGI [29]: > 100 µM
TGI [30]: > 100 µM
TGI [31]: > 100 µM
TGI [33]: > 100 µM
TGI [34]: > 100 µM
TGI [35]: > 100 µM
TGI [36]: > 100 µM
TGI [37]: > 100 µM
TGI [38]: > 100 µM
TGI [39]: > 100 µM
TGI [40]: > 100 µM
TGI [41]: > 100 µM
TGI [57]: > 100 µM
TGI [42]: > 100 µM
TGI [58]: > 100 µM
TGI [43]: > 100 µM
TGI [44]: > 100 µM
TGI [45]: > 100 µM
TGI [46]: > 100 µM
TGI [47]: > 100 µM
TGI [48]: > 100 µM
TGI [59]: > 100 µM
TGI [49]: > 100 µM
TGI [50]: > 100 µM
TGI [51]: > 100 µM
TGI [52]: > 100 µM
TGI [53]: > 100 µM
TGI [54]: > 100 µM

— PubChem BioAssay (NCI)
